In US4605672A, “Diethylaminoalkoxybenzhydrol derivatives, process for their preparation and pharmaceutical compositions containing them” (Richter Gedeon Vegyeszeti Gyar Rt., priority 1982, dated 1986):

How the values were obtained:
ethanolic narcosis [1] = assay: Ethanolic narcosis period (ethanol 3.5 g./kg. i.p.); type: in vivo, Wistar rats; details: 1 h before ethanol 3.5 g./kg. i.p., n=10, control = 100 ± 6.5
Method: The effect of the compounds according to the invention on ethanolic narcosis was tested on male and female Wistar rats, each weighing 160 to 180 g., in groups of 10. The animals were fasted for 16 hours prior to treatment and were then administered various doses of the test compound, orally. One hour after treatment the rats were treated with 3.5 g./kg. of ethanol intraperitoneally (i.p.). The narcosis period of the animals was measured from the elapse of the righting reflex until a spontaneous correction of the body position. The average of the narcosis period and the percentage difference from the control were calculated. […] The control group was treated with a placebo and a […]. dose of ethanol.

[2] = system: hyperactivity induced by ethanol; assay: Hyperactivity induced by ethanol (locomotor activity, Animex BSE motimeter); type: in vivo, BALB/c mice; details: n=15
Method: The effect of the compounds on hyperactivity induced by ethanol was tested on male and female BALB/c mice, each weighing 16 to 18 g. The test materials were administered to groups of 15 orally, one hour before administering the placebo orally or a 2 g./kg. dose of ethanol intraperitoneally. The control animals were treated with the placebo. The locomotor activity of the animals was measured for two hours, using an Animex BSE motimeter.

ethanolic ataxia = assay: Ethanolic ataxia and muscular tension on rotating rod; type: in vivo, BALB/c mice; details: n=10
Method: The effect of the compounds according to the invention on ethanolic ataxia and the change of muscular tension was tested on rotating rods. Trained and selected male and female BALB/c mice weighing 16 to 18 g. each were administered a 40 mg./kg. oral dose of the test compounds one hour before intraperitoneal administration of 2.5 g./kg. of ethanol. The time until the animals could remain on the rod was measured 60, 90 and 120 minutes after the ethanolic treatment. This time was 120 minutes for the animals with intact coordination. The results are summarized in Table 3, where the percentage of the animals remaining on the rotating rod is indicated.

[3] = system: catalepsy induced by tetrabenazine; assay: Inhibition of catalepsy induced by tetrabenazine; type: in vivo, Hann.-Wistar rats; details: Rattus norvegicus, po; rats; orally, 60 minutes before tetrabenazine 30 mg./kg. i.p.; probit analysis
Method: (§1) To determine the antidepressive activity of the compounds provided by the invention the inhibition of catalepsy induced by tetrabenazine and the inversion of hypothermia induced by reserpin were measured. The anticholinergic activity was tested by determining the inhibition of tremor induced by oxotremorin. As a reference compound imipramine was used.

[4] = system: hypothermia induced by reserpin; assay: Inversion of reserpin-hypothermia (antireserpin activity); type: in vivo, male CFLP mice; details: Mus musculus, po; mice; orally, 16 hours after reserpin 5 mg./kg. i.p.; dose increasing body temperature by 50%
Method: as §1
The inversion of reserpin-hypothermia was tested on male CFLP mice, weighing 18 to 22 g. each and treated with a 5 mg./kg. dose of reserpin intraperitoneally. 16 hours after treatment the animals were administered various doses of the test compounds, orally. The rectal temperature of the animals was measured before the reserpin treatment, 16 hours after treatment and 2 hours after the administration of the test compounds.

[5] = system: tremor induced by oxotremorin; assay: Anticholinergic activity: inhibition of tremor induced by oxotremorin; type: in vivo, male CFLP mice; details: mice, oral; for ED50: Mus musculus, oxotremorin 0.5 mg./kg. i.p., read-out: Oxotremorin inh. (ED50); for Oxotremorin inh. (result in words): remark to the printed 160.0 mg./kg.
Method: as §1
The anticholinergic activity was tested on male CFLP mice, weighing 18 to 22 g. each, which were treated with a 0.5 mg./kg. dose of oxotremorin (i.p.) and after 60 minutes with various oral doses of the test compounds.

Acute toxicity = details: rat, in vivo; rats; single 500 mg./kg. oral dose; observed for 14 hours; read-out: Toxicity, dead animals (%)
Method: The acute toxicity of the compounds according to the invention was determined on Hann.-Wistar rats of both sexes, weighing 160 to 180 g. each, which had been treated with a single 500 mg./kg. dose of the test compounds, orally. […] In Table 4 the percentage of the dead animals is given.

ethanolic narcosis [6] = details: known effect of the reference material; cited from earlier work

SMILES: CCN(CC)CCCOc1ccc(C(O)(CC)c2cccc(C(F)(F)F)c2)cc1 (stereo not drawn) [A, 3-trifluoromethyl-4'-[3-(diethylamino)-propoxy]-α-ethyl-benzhydrol]
- Ethanolic narcosis period (Control ± S.E. %) (ethanolic narcosis [1]; 10.0 mg./kg. orally): 52 ± 11.1%
- Ethanolic narcosis period (Control ± S.E. %) (ethanolic narcosis [1]; 40.0 mg./kg. orally): 40 ± 5.0%

SMILES: CCN(CC)CCOc1ccc(C(O)(CC)c2ccc(Cl)cc2)cc1 (stereo not drawn) [B, 4-chloro-4'-[2-(diethylamino)-ethoxy]-α-ethyl-benzhydrol]
- Ethanolic narcosis period (Control ± S.E. %) (ethanolic narcosis [1]; 10.0 mg./kg. orally): 48 ± 9.5%
- Ethanolic narcosis period (Control ± S.E. %) (ethanolic narcosis [1]; 40.0 mg./kg. orally): 39 ± 4.5%
- Locomotor activity (2 hours) ([2]; compound 10.0 mg./kg. orally + ethanol 2000.0 mg./kg. i.p., ethanol + placebo 190 ± 12.2): 110 ± 8.1 percentage of the control
- Locomotor activity (2 hours) ([2]; compound 10.0 mg./kg. orally + placebo (no ethanol), placebo control 100 ± 8.1): 110 ± 15.2 percentage of the control
- % of the animals remaining on the rod (ethanolic ataxia; compound 40.0 mg./kg. orally + ethanol 2500.0 mg./kg. i.p., 60 minutes, ethanol alone 10): 40%
- % of the animals remaining on the rod (ethanolic ataxia; compound 40.0 mg./kg. orally + ethanol 2500.0 mg./kg. i.p., 90 minutes, ethanol alone 40): 70%
- % of the animals remaining on the rod (ethanolic ataxia; compound 40.0 mg./kg. orally + ethanol 2500.0 mg./kg. i.p., 120 minutes, ethanol alone 50): 90%
- % of the animals remaining on the rod (ethanolic ataxia; compound 40.0 mg./kg. orally, no ethanol, 60 minutes): 100%
- % of the animals remaining on the rod (ethanolic ataxia; compound 40.0 mg./kg. orally, no ethanol, 90 minutes): 100%
- % of the animals remaining on the rod (ethanolic ataxia; compound 40.0 mg./kg. orally, no ethanol, 120 minutes): 100%

SMILES: CCN(CC)CCOc1ccc(C(O)(CC)c2ccc(C(F)(F)F)cc2)cc1 (stereo not drawn) [C, 4-trifluoromethyl-4'-[2-(diethylamino)-ethoxy]-α-ethyl-benzhydrol]
- ED50 [3]: 20 mg/kg
- ED50 [4]: 30 mg/kg
- ED50 [5]: 160 mg/kg
- Oxotremorin inh. (result in words) [5]: ineffective
- mortality at 14 h (Acute toxicity): 0%

SMILES: CCN(CC)CCCOc1ccc(C(O)(CC)c2cccc(Cl)c2)cc1 (stereo not drawn) [D, 3-chloro-4'-[3-(diethylamino)-propoxy]-α-ethyl-benzhydrol]
- ED50 [3]: 18.8 mg/kg
- ED50 [4]: 17 mg/kg
- ED50 [5]: 160 mg/kg
- Oxotremorin inh. (result in words) [5]: ineffective
- mortality at 14 h (Acute toxicity): 0%

SMILES: CN(C)CCCN1c2ccccc2CCc2ccccc21 [Imipramine, reference compound]
- ED50 [3]: 13.7 mg/kg
- ED50 [4]: 15 mg/kg
- ED50 [5]: 50 mg/kg
- mortality at 14 h (Acute toxicity): 80%

SMILES: N[C@@H](CS)C(=O)O [L-cysteine, reference compound]
- Ethanolic narcosis period (Control ± S.E. %) (ethanolic narcosis [1]; 500.0 mg./kg. orally): 63 ± 4.2%
- alcoholic narcosis reducing effect (ethanolic narcosis [6]): known to have an alcoholic narcosis reducing effect
